Seven molecules from patent US9249129B2, “Morpholino substituted urea derivatives as mTOR inhibitors” (CELLZOME LIMITED, priority 2010, dated 2016) can be followed below.

Assay [1] concerns the target T1, DNA-dependent protein kinase (DNA-PK) (Homo sapiens, UniProt P78527).
T1 construct: endogenous in cells; host or cells: Jurkat cells (ATCC TIB-152, clone E6-1), lysate
Kind of assay: kinobeads assay, DNA-PK (dot blot detection). Type of assay: binding. The procedure: (§1) The compounds of the present invention as described were tested in the mTOR kinobeads assay as described below. Briefly, test compounds (at various concentrations) and the affinity matrix (1:1 mixture of beads with immobilized phenylthiazole ligand 1 and beads with immobilized phenylmorpholin-chromen ligand; WO 2009/098021) were added to cell lysate aliquots and allowed to bind to the proteins in the lysate sample. After the incubation time the beads with captured proteins were separated from the lysate. Bound proteins were then eluted and the presence of mTOR, PI3K delta (PI3 Kd) and DNA-dependent protein kinase (DNA-PK) was detected and quantified using a specific antibody in a dot blot procedure and the Odyssey infrared detection system. Dose response curves for individual kinases were generated and IC50 values calculated. Kinobeads assays for PI3 kinases (WO-A 2008/015013) and for kinase selectivity profiling (WO 2009/098021) have been previously described.
(§2) The affinity matrix (beads with immobilized phenylmorpholin-chromen ligand) was washed two times with 15 ml of 1×DP buffer containing 0.2% NP40 (IGEPAL® CA-630, Sigma, #13021) and then resupended in 5.5 ml of 1×DP buffer containing 0.2% NP40 (10% beads slurry).
(§3) 5×DP buffer: 250 mM Tris-HCl pH 7.4, 25% Glycerol, 7.5 mM MgCl2, 750 mM NaCl, 5 mM Na3VO4, filter the 5×-lysis buffer through 0.22 μm filter and store in aliquots at −80° C. The 5×DP buffer is diluted to 1×DP buffer containing 1 mM DTT and 25 mM NaF.
(§4) Stock solutions of test compounds were prepared in DMSO. In a 96 well plate 30 μl solution of diluted test compounds at 5 mM in DMSO were prepared. Starting with this solution a 1:3 dilution series (9 steps) was prepared. For control experiments (no test compound) a buffer containing 2% DMSO was used. Compound CZC00018052 served as a positive control (PI-103; Calbiochem catalogue number 528100).
(§5) Jurkat cells (ATCC catalogue number TIB-152 Jurkat, clone E6-1) were grown in 1 litre Spinner flasks (Integra Biosciences, #182101) in suspension in RPMI 1640 medium (Invitrogen, #21875-034) supplemented with 10% Fetal Bovine Serum (Invitrogen) at a density between 0.15×10^6 and 1.2×10^6 cells/ml. Cells were harvested by centrifugation, washed once with 1×PBS buffer (Invitrogen, #14190-094) and cell pellets were frozen in liquid nitrogen and subsequently stored at −80° C.
(§6) Jurkat cells were homogenized in a Potter S homogenizer in lysis buffer: 50 mM Tris-HCl, 0.8% NP40, 5% glycerol, 150 mM NaCl, 1.5 mM MgCl2, 25 mM NaF, 1 mM sodium vanadate, 1 mM DTT, pH 7.5. One complete EDTA-free tablet (protease inhibitor cocktail, Roche Diagnostics, 1873580) per 25 ml buffer was added. The material was dounced 10 times using a mechanized POTTER S, transferred to 50 ml falcon tubes, incubated for 30 minutes on ice and spun down for 10 min at 20,000 g at 4° C. (10,000 rpm in Sorvall SLA600, precooled). The supernatant was transferred to an ultracentrifuge (UZ)-polycarbonate tube (Beckmann, 355654) and spun for 1 hour at 100.000 g at 4° C. (33.500 rpm in Ti50.2, precooled). The supernatant was transferred again to a fresh 50 ml falcon tube, the protein concentration was determined by a Bradford assay (BioRad) and samples containing 50 mg of protein per aliquot were prepared. The samples were immediately used for experiments or frozen in liquid nitrogen and stored frozen at −80° C.
(§7) Jurkat cell lysate (approximately 50 mg protein per plate) was thawed in a water bath at room temperature and then kept on ice. To the thawed cell lysate 1×DP 0.8% NP40 buffer containing protease inhibitors (1 tablet for 25 ml buffer; EDTA-free protease inhibitor cocktail; Roche Diagnostics 1873580) was added in order to reach a final protein concentration of 5 mg/ml total protein. The diluted cell lysate was stored on ice. […]

The target of assay [2] is T2, PI3K delta (PI3Kd) (Homo sapiens, UniProt O00329).
T2 construct: endogenous in cells; host or cells: Jurkat cells (ATCC TIB-152, clone E6-1), lysate
The assay is described as follows: kinobeads assay, PI3K delta (dot blot detection). It is filed as binding. The procedure: as §1, §2, §3, §4, §5, §6, §7

Assay [3] has as its target T3, PI3Kβ (Homo sapiens, UniProt P42338).
T3 construct: endogenous in cells; host or cells: Jurkat cells (ATCC TIB-152) lysate, the only lysate described
Kind of assay: kinobeads assay, PI3K beta (dot blot detection). Type of assay: binding. The note with it: Table 4, read-out: Inhibition values (IC50) PI3Kb.

The target of assay [4] is T4, PI3Kγ (Homo sapiens, UniProt P48736).
T4 construct: endogenous in cells; host or cells: Jurkat cells (ATCC TIB-152) lysate, the only lysate described
The assay is described as follows: kinobeads assay, PI3K gamma (dot blot detection). Type of assay: binding. The note with it: Table 4, read-out: Inhibition values (IC50) PI3Kg.

Assay [5] addresses T5, mTOR (Homo sapiens, UniProt P42345).
T5 construct: endogenous in cells; host or cells: Jurkat cells (ATCC TIB-152, clone E6-1), lysate
Kind of assay: mTOR kinobeads assay (dot blot detection). It is filed as binding. The method, then: as §1, §2, §3, §4, §5, §6, §7

Assay [6] relates to S6RP serine-240/244 phosphorylation in HEK293T/17 cells. Kind of assay: In vitro phospho-S6 cellular assay (pS6RP S240/244). Type of assay: cell-based. The following applies: Homo sapiens, Table 6, 2 hours, S6RP Ser240/244, read-out: pS6 (phospho-S6 cell assay data, activity level). An excerpt: In Vitro Phospho-S6 and Phospho-Akt Cellular Assay
Activation of mTOR signaling results in phosphorylation of several downstream targets. In cells, mTOR exists in two different protein complexes. The mTOR Complex-1 (mTORC1) phosphorylates and activates S6 Kinase 1 (S6K1) and S6 Kinase 2 (S6K2) (also known as p70S6K) which then phosphorylate S6 Ribosomal Protein (S6RP) (also known as RPS6). S6RP is phosphorylated on serine 235, serine 236, serine 240 and serine 244 by both pS6K1 and pS6K2. The mTOR Complex-2 (mTORC2) phosphorylates AKT on serine 473 which activates the AKT signaling pathway.
The assay measures a test compound's inhibition of S6RP serine-240/244 phosphorylation and inhibition of Akt serine-473 phosphorylation in human embryonic kidney derived HEK293T/17 cells (ATCC CRL-11268).
The HEK293T/17 cell line is maintained in DMEM media (Invitrogen catalogue number 41965-039) supplemented with 10% FCS at 37° C. in a 5% CO2 humidified incubator.
Cells are seeded in 96-well plates at 40,000 cells/well (pS6RP S240/244 assay) or 80,000 cells/well (pAkt 5473 assay) in 90 μl growth media (DMEM, 2% FCS). Plates are incubated for 1 hour in a humidified incubator to allow the cells to adhere. Cells are treated with 8 concentrations of test compounds or DMSO alone for controls (final DMSO concentration 0.1%) and incubated at 37° C. for 2 hours. Then 20 μl of 5× concentrated lysis buffer (750 mM NaCl, 100 mM Tris pH7.4, 5 mM EDTA, 5 mM EGTA, 5% Triton X-100) is added, plates are sealed and incubated for 15 minutes at 4° C. with gentle shaking. After cell lysis, 25 μl cell lysate is transferred to a MesoScale plate coated with an antibody to pS6RP Ser240/244 (MesoScale Discovery K150DGD-3) or an antibody to pAkt Ser 473 (MesoScale Discovery K151DGD-3). Plates have been blocked before by incubation with 150 μl MesoScale Discovery Blocking Solution-A for 1 hour at room temperature followed by washing with 150 μl 1× Tris wash buffer per well. After the transfer of the cell lysate to the MSD plate, the pS6RP (or pAkt) protein is captured on the coated antibody by incubation at room temperature for 1 hour with gentle shaking. After the capture step the plate is washed three times with 150 μl of 1× Tris wash buffer per well. Then 25 μl detection antibody conjugated with a Sulfo-Tag is added and incubated for 1 hour at room temperature with gentle shaking. Subsequently the antibody solution is removed and the plate is washed 3 times with 150 μl 1× Tris wash buffer per well and 150 μl Read buffer is added. The plates are analysed on a MSD 2400 Plate Reader (MesoScale Discovery). Data analysis is performed using nonlinear regression for a sigmoidal dose-response with a variable slope.

In assay [7] the target is T6, PI3Kα (Homo sapiens, UniProt P42336).
T6 construct: endogenous in cells; host or cells: Jurkat cells (ATCC TIB-152) lysate, the only lysate described
The assay is described as follows: kinobeads assay, PI3K alpha (dot blot detection). It is filed as binding. The note with it: Table 4, read-out: Inhibition values (IC50) PI3Ka.

Setting [8] is: Table 2, Jurkat cell lysate, read-out: Inhibition values (IC50) DNAPK.
Where [9] appears, read: Table 4, read-out: Inhibition values (IC50) DNAPK.
Where [10] appears, read: Table 2, Jurkat cell lysate, read-out: Inhibition values (IC50) PI3Kd.
Setting [11] is: Table 4, read-out: Inhibition values (IC50) PI3Kd.
Where [12] appears, read: Table 2, Jurkat cell lysate, read-out: Inhibition values (IC50) mTor.
Setting [13] is: Table 4, read-out: Inhibition values (IC50) mTOR.

Like-named read-outs stand apart in the source and are kept apart here.

T6 sequence (P42336 whole entry): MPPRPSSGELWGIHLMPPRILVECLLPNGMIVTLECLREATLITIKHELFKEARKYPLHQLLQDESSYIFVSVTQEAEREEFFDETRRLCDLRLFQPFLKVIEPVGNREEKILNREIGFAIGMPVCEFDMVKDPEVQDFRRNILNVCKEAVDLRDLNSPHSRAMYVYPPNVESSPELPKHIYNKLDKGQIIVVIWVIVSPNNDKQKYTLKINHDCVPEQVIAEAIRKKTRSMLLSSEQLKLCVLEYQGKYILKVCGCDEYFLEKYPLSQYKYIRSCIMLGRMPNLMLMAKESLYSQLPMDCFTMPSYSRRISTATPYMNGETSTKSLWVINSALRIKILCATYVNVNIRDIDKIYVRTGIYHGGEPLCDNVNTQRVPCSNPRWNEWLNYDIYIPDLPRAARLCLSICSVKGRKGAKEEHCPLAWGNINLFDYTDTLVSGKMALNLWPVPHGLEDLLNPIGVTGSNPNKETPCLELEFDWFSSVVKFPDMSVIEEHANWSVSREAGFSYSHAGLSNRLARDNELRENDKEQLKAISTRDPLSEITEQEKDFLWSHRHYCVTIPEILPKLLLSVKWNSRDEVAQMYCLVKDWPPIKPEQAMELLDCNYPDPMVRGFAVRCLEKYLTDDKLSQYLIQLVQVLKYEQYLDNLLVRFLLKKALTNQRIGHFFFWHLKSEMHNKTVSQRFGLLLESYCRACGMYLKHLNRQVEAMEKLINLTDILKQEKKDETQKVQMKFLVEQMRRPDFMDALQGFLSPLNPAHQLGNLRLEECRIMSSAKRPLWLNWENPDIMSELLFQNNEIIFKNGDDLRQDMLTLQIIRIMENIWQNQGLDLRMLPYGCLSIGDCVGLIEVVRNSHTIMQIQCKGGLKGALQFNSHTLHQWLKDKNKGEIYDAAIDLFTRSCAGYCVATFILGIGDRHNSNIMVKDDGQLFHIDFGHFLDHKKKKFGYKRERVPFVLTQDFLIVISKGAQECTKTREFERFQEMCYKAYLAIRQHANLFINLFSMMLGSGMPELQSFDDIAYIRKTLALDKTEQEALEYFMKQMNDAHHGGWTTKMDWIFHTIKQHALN
T6 sequence (P27986 whole entry partner): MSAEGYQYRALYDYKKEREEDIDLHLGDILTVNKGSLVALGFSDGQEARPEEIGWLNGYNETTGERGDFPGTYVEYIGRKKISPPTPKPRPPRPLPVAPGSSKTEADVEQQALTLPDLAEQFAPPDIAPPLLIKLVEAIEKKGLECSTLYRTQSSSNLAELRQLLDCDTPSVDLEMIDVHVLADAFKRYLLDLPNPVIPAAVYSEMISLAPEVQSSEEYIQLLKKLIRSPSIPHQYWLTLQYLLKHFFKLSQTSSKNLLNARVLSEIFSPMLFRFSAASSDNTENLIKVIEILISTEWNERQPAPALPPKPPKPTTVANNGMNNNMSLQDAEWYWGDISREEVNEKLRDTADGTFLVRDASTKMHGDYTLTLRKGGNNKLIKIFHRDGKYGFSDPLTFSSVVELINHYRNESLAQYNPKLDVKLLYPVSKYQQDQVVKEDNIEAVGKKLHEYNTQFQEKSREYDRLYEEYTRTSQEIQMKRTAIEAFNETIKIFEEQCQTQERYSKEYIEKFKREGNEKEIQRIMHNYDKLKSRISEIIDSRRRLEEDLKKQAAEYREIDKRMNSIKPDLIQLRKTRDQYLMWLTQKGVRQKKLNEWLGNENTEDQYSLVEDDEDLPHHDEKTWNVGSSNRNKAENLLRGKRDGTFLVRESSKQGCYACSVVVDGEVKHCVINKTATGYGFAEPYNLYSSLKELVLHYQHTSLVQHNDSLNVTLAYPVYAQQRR
T3 sequence (P42338 whole entry): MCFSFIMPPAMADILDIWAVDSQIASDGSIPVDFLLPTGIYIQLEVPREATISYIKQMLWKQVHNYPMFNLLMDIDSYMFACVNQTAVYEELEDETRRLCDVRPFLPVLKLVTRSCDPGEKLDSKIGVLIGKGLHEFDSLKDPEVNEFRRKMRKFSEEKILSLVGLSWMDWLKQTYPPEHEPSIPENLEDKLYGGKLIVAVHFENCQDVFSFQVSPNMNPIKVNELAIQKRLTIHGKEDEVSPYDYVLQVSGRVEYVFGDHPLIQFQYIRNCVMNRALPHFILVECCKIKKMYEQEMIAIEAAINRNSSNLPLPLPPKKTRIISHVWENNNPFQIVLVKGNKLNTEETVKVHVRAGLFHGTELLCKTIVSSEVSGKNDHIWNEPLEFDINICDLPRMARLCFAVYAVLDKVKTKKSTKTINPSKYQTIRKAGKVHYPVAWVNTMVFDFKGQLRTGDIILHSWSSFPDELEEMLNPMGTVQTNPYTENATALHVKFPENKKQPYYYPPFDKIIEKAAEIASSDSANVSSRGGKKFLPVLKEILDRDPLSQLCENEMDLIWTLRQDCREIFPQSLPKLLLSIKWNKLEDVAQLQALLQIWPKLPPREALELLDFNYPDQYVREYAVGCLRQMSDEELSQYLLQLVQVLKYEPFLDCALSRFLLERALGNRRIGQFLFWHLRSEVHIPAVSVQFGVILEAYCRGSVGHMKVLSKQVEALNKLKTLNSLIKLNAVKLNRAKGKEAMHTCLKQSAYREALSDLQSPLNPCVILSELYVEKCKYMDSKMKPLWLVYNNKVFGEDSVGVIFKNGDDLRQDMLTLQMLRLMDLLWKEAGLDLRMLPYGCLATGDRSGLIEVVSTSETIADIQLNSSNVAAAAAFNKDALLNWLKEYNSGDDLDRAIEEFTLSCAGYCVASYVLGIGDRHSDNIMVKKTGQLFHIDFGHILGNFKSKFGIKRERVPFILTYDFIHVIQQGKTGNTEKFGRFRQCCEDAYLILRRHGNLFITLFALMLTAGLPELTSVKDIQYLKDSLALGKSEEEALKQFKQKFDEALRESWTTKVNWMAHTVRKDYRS
T3 sequence (P27986 whole entry partner): as the sequence (P27986 whole entry partner) above
T2 sequence (O00329 whole entry): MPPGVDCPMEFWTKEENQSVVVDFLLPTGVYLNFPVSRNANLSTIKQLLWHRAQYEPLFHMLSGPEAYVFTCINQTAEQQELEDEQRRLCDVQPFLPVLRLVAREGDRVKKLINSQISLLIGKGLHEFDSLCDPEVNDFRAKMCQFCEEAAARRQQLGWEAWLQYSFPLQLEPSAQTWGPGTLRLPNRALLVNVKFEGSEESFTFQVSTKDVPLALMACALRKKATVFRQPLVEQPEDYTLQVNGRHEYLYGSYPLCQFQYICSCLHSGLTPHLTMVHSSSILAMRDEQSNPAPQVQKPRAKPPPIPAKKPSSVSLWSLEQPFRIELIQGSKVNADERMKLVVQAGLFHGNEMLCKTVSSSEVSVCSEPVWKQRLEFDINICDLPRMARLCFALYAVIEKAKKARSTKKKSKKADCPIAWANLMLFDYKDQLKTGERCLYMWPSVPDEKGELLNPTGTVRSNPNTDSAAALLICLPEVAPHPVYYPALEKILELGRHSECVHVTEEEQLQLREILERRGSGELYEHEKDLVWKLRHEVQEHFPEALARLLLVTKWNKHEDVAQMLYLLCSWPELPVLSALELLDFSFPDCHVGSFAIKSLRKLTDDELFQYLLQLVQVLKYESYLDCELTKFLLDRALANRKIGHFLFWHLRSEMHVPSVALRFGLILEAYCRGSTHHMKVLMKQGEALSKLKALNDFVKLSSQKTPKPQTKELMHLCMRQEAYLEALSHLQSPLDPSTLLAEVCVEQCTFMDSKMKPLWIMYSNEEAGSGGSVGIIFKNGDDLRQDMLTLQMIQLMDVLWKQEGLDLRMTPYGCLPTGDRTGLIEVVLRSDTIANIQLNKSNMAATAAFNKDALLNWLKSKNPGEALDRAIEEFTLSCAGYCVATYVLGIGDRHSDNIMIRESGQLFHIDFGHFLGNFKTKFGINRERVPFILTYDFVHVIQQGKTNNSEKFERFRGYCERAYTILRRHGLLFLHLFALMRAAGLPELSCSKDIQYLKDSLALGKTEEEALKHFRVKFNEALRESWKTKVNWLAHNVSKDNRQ
T2 sequence (P27986 whole entry partner): as the sequence (P27986 whole entry partner) above
T4 sequence (P48736 whole entry): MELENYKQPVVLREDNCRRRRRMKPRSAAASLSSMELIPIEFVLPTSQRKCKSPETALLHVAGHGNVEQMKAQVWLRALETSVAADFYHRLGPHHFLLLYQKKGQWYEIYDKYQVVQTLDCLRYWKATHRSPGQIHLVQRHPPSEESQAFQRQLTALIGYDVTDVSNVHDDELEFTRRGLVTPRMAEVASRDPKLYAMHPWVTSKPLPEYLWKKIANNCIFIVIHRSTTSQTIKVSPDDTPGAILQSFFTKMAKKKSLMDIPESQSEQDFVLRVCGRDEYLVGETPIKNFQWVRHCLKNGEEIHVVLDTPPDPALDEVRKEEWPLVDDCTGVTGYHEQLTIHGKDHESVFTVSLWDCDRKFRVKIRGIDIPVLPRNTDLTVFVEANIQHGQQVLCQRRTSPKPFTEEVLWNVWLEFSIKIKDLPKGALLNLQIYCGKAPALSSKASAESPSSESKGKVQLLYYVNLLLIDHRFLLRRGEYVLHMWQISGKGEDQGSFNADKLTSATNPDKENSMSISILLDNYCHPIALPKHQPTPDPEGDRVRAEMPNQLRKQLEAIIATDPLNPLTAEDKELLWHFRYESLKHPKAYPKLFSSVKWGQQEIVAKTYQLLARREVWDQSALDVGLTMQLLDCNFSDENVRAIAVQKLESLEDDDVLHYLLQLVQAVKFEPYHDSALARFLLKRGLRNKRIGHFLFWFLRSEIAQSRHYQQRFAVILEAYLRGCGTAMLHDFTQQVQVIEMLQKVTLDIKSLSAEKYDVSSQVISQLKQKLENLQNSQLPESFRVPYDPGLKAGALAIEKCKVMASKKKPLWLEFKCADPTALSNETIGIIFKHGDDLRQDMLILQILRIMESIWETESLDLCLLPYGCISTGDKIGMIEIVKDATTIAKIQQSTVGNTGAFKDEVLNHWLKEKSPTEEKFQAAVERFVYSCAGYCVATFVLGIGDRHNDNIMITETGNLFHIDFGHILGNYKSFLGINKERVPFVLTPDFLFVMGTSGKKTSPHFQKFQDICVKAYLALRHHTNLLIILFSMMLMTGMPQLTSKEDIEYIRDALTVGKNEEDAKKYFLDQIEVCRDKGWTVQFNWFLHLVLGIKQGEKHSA

On to `C[C@H]1COCCN1c1cc(-c2cccnc2)nc(-c2ccc(NC(=O)NC3CC3)cc2)n1` [Example 3, (S)-1-cyclopropyl-3-(4-(4-(3-methylmorpholino)-6-(pyridin-3-yl)pyrimidin-2-yl)phenyl)urea], for which the IC50 in assay [1] (setting [8]), in assay [1] (setting [9]), in assay [2] (setting [10]), in assay [2] (setting [11]), in assay [3] and in assay [4] was at least 10 µM each time. Besides, the IC50 in assay [5] (setting [12]) was 0.1 to 1 µM; in assay [5] (setting [13]), 0.1 to 1 µM; in assay [6], below 0.1 µM; in assay [7], at least 10 µM.
`C[C@H]1COCCN1c1nc(-c2ccc(NC(=O)NC3CC3)cc2)cc(-c2cccnc2)n1` [Example 7, (S)-1-cyclopropyl-3-(4-(2-(3-methylmorpholino)-6-(pyridin-3-yl)pyrimidin-4-yl)phenyl)]: the IC50 in assay [1] (setting [8]), in assay [1] (setting [9]), in assay [2] (setting [10]), in assay [2] (setting [11]), in assay [3] and in assay [4] was at least 10 µM throughout. Further, the IC50 in assay [5] (setting [12]) was 1 to 10 µM; in assay [5] (setting [13]), 1 to 10 µM; in assay [6], 0.1 to 1 µM; in assay [7], at least 10 µM.
Turning to `CCNC(=O)Nc1ccc(-c2cc(-c3ccccc3S(=O)(=O)N(C)C)nc(N3CCOC[C@@H]3C)n2)cc1` [Example 14, (S)-2-(6-(4-(3-ethylureido)phenyl)-2-(3-methylmorpholino)pyrimidin-4-yl)-N,N-dimethylbenzenesulfonamide], the IC50 in assay [1] (setting [8]), in assay [1] (setting [9]), in assay [2] (setting [10]), in assay [2] (setting [11]), in assay [3] and in assay [4] was at least 10 µM each time. Moreover, the IC50 in assay [5] (setting [12]) is 0.1 to 1 µM; in assay [5] (setting [13]), 0.1 to 1 µM; in assay [6] it was 0.1 to 1 µM; in assay [7] it was at least 10 µM.
With `CCNC(=O)Nc1ccc(-c2cc(-c3cncc(S(C)(=O)=O)c3)nc(N3CCOC[C@@H]3C)n2)cc1` [Example 15, (S)-1-ethyl-3-(4-(2-(3-methylmorpholino)-6-(5-(methylsulfonyl)pyridin-3-yl)pyrimidin-4-yl)phenyl)urea], the IC50 in assay [1] (setting [8]), in assay [1] (setting [9]), in assay [2] (setting [10]), in assay [2] (setting [11]), in assay [3] and in assay [4] was at least 10 µM throughout. Also, the IC50 in assay [5] (setting [12]) is 1 to 10 µM; in assay [5] (setting [13]), 1 to 10 µM; in assay [6], 0.1 to 1 µM; in assay [7], at least 10 µM.
On to `C[C@H]1COCCN1c1cc(-c2cncc(S(C)(=O)=O)c2)nc(-c2ccc(NC(=O)NC3CC3)cc2)n1` [Example 22, (S)-1-cyclopropyl-3-(4-(4-(3-methylmorpholino)-6-(5-(methylsulfonyl)pyridin-3-yl)pyrimidin-2-yl)phenyl)urea], for which the IC50 in assay [1] (setting [8]) was at least 10 µM; in assay [1] (setting [9]), at least 10 µM; in assay [2] (setting [10]), at least 10 µM; in assay [2] (setting [11]) it was at least 10 µM; in assay [5] (setting [12]) it was 1 to 10 µM; in assay [5] (setting [13]), 1 to 10 µM. Besides, the IC50 in assay [6] was in the range of 0.1 to 1 µM.
Turning to `CNC(=O)Nc1ccc(-c2nccc(N3CCOC[C@@H]3C)n2)cc1` [Example 34, (S)-1-methyl-3-(4-(4-(3-methylmorpholino)pyrimidin-2-yl)phenyl)urea], the IC50 in assay [1] (setting [8]) is at least 10 µM; in assay [1] (setting [9]) it was at least 10 µM; in assay [2] (setting [10]), at least 10 µM; in assay [2] (setting [11]), at least 10 µM; in assay [5] (setting [12]), 1 to 10 µM; in assay [5] (setting [13]) it was 1 to 10 µM. Also, the IC50 in assay [6] was in the range of 0.1 to 1 µM.
For `CC(=O)NCCNC(=O)Nc1ccc(-c2cc(-c3cc(F)ccc3S(C)(=O)=O)nc(N3CCOC[C@@H]3C)n2)cc1` [Example 85, (S)—N-(2-(3-(4-(6-(5-fluoro-2-(methylsulfonyl)phenyl)-2-(3-methylmorpholino)pyrimidin-4-yl)phenyl)ureido)ethyl)acetamide], the IC50 is at least 10 µM in assay [1] (setting [9]); at least 10 µM in assay [2] (setting [11]); at least 10 µM in assay [3]; at least 10 µM in assay [4]; 1 to 10 µM in assay [5] (setting [13]); at least 10 µM in assay [7].
